# Several values for one entry are separate records, joined by “and”; a condition that tells them apart may be missing. Equal entries are not always repeated.
# Legend:
# [1] = tested on: Pseudomonas syringe pv. tomato; assay: Protection of tobacco against bacterial infection of Pseudomonas syringe pv. tomato; type: in vivo, Nicotiana tabacum cv. xanthi
# Procedure: Tobacco plants at the 3 developed leaves stage were watered (applied at the roots) twice in weekly intervals with BTHWA solution at a concentration of 20 mg/L. Control tobacco plants were irrigated with water only. One week after the second treatment, a Pseudomonas syringe pv. tomato bacterial suspension, at a concentration of 10^5 CFU/cm^3 was transferred to the leaf by using an insulin syringe (without a needle). The bacterial suspension was prepared from two-day syringe pv. tomato culture on a solid medium. Protection against biotic stress was evaluated based on the amount of bacterial growth in the leaves at the point of introduction followed by the formation of necrotic spots, and this was compared with the control. […] The procedure as described in Example 12 was followed, however, the effectiveness of BTHWA in protecting plants against biotic stress was tested against the bacterial cell concentration raised to approx. 10^6 […].
# Brome Mosaic Virus BMV = assay: Protection of barley against Brome Mosaic Virus infection by watering; type: in vivo
# Procedure: […] Control barley plants were treated with water only. One week after the second application of BTHWA, in each plant, one young developed leaf was sprinkled with carborundum to obtain small scratches, which helped in the virus infection.
# [2] = tested on: tobacco mosaic virus (TMV); assay: TMV-tobacco cv. xanthi model, protection against biotic stress (necrotic spots); type: in vivo, Nicotiana tabacum cv. xanthi; settings: for Resistance induction [%] (Reduction of necrotic spots related to control): evaluated after another 4 days
# Procedure: Tobacco plants (Nicotiana tabacum) cv. xanthi at the stage of three developed leaves was watered (i.e. applied to the roots) twice with BTHWA solution of 10 mg/L, in one-week intervals. Control tobacco plants were irrigated with water only. […] To assess the biological effectiveness in protecting plants against biotic stress, the TMV-tobacco cv. xanthi model was used. This pathogen-plant model includes determining the hypersensitivity interaction phenomena with formation of necrotic spots which are quantifiable.
# Tobacco plants (Nicotiana tabacum) cv. xanthi at the stage of three developed leaves were sprayed once with BION™ or BTHWA solutions at a concentration of 20 mg/L. A week later, the plants were mechanically infected with TMV virus by repeatedly rubbing the leaves with carborundum steeped in a suspension of the purified virus at the concentration of approx. 2 μg/ml. The level of protection against biotic stress was assessed by comparing the number of necrotic spots caused by TMV on the leaves of plants treated by BTHWA or BION™ and compared to the control (plant sprayed with water only).
# Reduction of the amount of necrotic spots indicates protection against influence of the biotic factor on the plant.
# The procedure as described in Example 4 was followed, however, the treated and control plants were divided into three batches and their leaves were inoculated with a virus, respectively after 1, 2, and 3 weeks past the last treatment with BTHWA or water only.
# After six days, plants treated with a solution of the working fluid at a BTHWA concentration <100 mg/L were inoculated with tobacco mosaic virus (TMV) in order to determine the degree of induction of resistance caused by the formulation. After another 4 days of infection by TMV, the level of infection was evaluated by determining the number and size of necrotic spot caused by viral disease oi the plant leaves relative to the control.
# Research on the durability of the induced resistance effect on the model of tobacco plants against TMV virus was performed. […] The group of plants were then infected with the virus after 1, 3, 6, 10, 15, 20, 25 and 30 days (Table 3).
# Tomato plants [3] = assay: Protection against abiotic stress in tomato caused by lack of water; type: in vivo; settings: watered twice 20 mg/L; 10 days after cessation of watering
# Procedure: Tomato plants in the phase of first pair of developed true leaves were watered twice with BTHWA at concentration of 20 mg/L, at a weekly intervals. Control tomato plants were treated with water only. A week after the second treatment, plants were exposed to a stress factor in the form of lack of access to water.
# Powdery mildew = assay: Protection of tomato against fungal infection of Powdery mildew; type: in vivo, Tomato Lycopersicon esculentum Mill
# Procedure: Tomato plants in the phase of first pair of developed true leaves were watered twice with BTHWA at a concentration of 20 mg/L, at a weekly interval. Control tomato plants were treater with water only. One week after the second treatment with BTHWA, Powdery mildew fungi suspension was introduced to the leaf using an insulin syringe (without a needle). The suspension was prepared from a culture in solid medium solid. Protection against biotic stress was evaluated based on comparing the area of the leaves infected by the fungi. […] The procedure as described in Example 18 was followed, however, the plants were sprayed.
# Pyrenophora teres = assay: Field test on barley, fungal infection by Pyrenophora teres; type: in vivo, Hordeum vulgare (spring); settings: Example 27: BTHWA 20 mg/L with Trend 90 EC, six foliar applications at 10 days intervals; harvested 13 days after last treatment
# Procedure: The test was conducted on a variety of barley Hordeum vulgare (spring). As such, six applications of the active substance solution was made. The study was conducted on fields of about 25 m^2 in quadruplicate for each combination tested. […] (with the addition of commercial adjuvant) followed by treatment with common fungicide (tebukonazole in formulation containing 250 g of active substance to be applied per 1 ha) in reducing infection of fungi Pyrenophora teres in barley (Hordeum vulgare (spring)) was performed. […] Six applications of the active substance BTHWA solution were made. As a control, one application of fungicide was performed at the time as indicated on the product label. The study was conducted on fields of about 25 m^2 in quadruplicate for each combination tested. […] The fungicide was applied in an amount of 33% its recommended dose (83 g/ha). Six applications of the active substance BTHWA solution were made. As a control, one application of fungicide was performed at the time as indicated on the product label. The study was conducted on fields of about 25 m^2 in quadruplicate for each combination tested.
# Tomato plants [4] = assay: Protection against abiotic stress in tomato caused by herbicide (glyphosate); type: in vivo; settings: watered twice 20 mg/L; glyphosate 0.005% aqueous solution; 10 days after herbicide application
# Procedure: Tomato plants in the phase of first pair of developed true leaves were watered twice with BTHWA at concentration of 20 mg/L, at a weekly intervals. Control tomato plants were treated with water only.
# [5] = watered once with 100 ml of 20 mg/L
smiles,measurement,setting,value
"CON(C)C(=O)c1cccc2nnsc12 [BTHWA, N-methyl-N-methoxy-7-carboxybenzo[1,2,3]thiadiazole amide]",protection against the effects of bacterial infection,"[1]; 10 mg/L, applied by watering or spraying",completely protecting the treated plants from the effects of bacterial infection
same,protection against the effects of bacterial infection,"[1]; sprayed twice at weekly intervals, 20 mg/L",fully protects the plants against the effects of bacterial infection
same,bacterial infection and formation of necrotic spots,"[1]; watered twice at weekly intervals, 20 mg/L, bacteria 10^5 CFU/cm^3",these effects were not observed
same,local necrotic spots at elevated bacterial cell concentration,"[1]; watering as in Example 12, bacteria approx. 10^6 CFU/cm",no local necrotic spots were observed
same,biotic stress effects (disease symptoms) compared to control,"Brome Mosaic Virus BMV; watered twice at weekly intervals with 70 ml of 20 mg/L, two weeks after BMV infection",showed no presence of biotic stress effects
same,prevention of biotic stress caused by BMV infection,Brome Mosaic Virus BMV; watered with 10 mg/L,65%
same,Resistance induction [%] (Reduction of necrotic spots related to control),"[2]; spray 5 mg/L, TMV inoculation after six days",85%
same,Resistance induction [%] (Reduction of necrotic spots related to control),"[2]; spray 10 mg/L, TMV inoculation after six days",97%
same,Resistance induction [%] (Reduction of necrotic spots related to control),"[2]; spray 20 mg/L, TMV inoculation after six days",97%
same,Resistance induction [%] (Reduction of necrotic spots related to control),"[2]; spray 50 mg/L, TMV inoculation after six days",98%
same,lowest possible concentration at which the efficiency is maintained at greater than 90%,"[2]; spray, TMV inoculation after six days",10 mg/L
same,effectiveness in preventing biotic stress compared with BION,"[2]; sprayed once, 20 mg/L",more effective in preventing the occurrence of biotic stress
same,Average number of the local necrotic spots per leaf,"[2]; sprayed once, 20 mg/L, TMV infection a week later",0
same,Reduction of necrotic spots [%],"[2]; sprayed once, 20 mg/L, TMV infection a week later, vs control",100%
same,persistence of the resistance effect after a single application,[2]; [5],up to 25 days
same,time to activation of resistance after application,[2]; [5],after at least three days
same,% of induction (reduction of necrotic spots related to control),"[2]; watered once with 100 ml of 20 mg/L, virus inoculation 1 day after application",<10%
same,% of induction (reduction of necrotic spots related to control),"[2]; watered once with 100 ml of 20 mg/L, virus inoculation 3 days after application",10-20%
same,% of induction (reduction of necrotic spots related to control),"[2]; watered once with 100 ml of 20 mg/L, virus inoculation 6 days after application",94%
same,% of induction (reduction of necrotic spots related to control),"[2]; watered once with 100 ml of 20 mg/L, virus inoculation 10 days after application",96%
same,% of induction (reduction of necrotic spots related to control),"[2]; watered once with 100 ml of 20 mg/L, virus inoculation 15 days after application",95%
same,% of induction (reduction of necrotic spots related to control),"[2]; watered once with 100 ml of 20 mg/L, virus inoculation 20 days after application",95%
same,% of induction (reduction of necrotic spots related to control),"[2]; watered once with 100 ml of 20 mg/L, virus inoculation 25 days after application",91%
same,% of induction (reduction of necrotic spots related to control),"[2]; watered once with 100 ml of 20 mg/L, virus inoculation 30 days after application",85%
same,protection against biotic stress (number of necrotic spots vs control),"[2]; watered twice with 10 mg/L at one-week intervals, TMV infection a week after second treatment",restricts the influence of biotic factor
same,durability of protection against TMV biotic stress,"[2]; watering 10 mg/L twice, inoculation 1, 2 and 3 weeks after last treatment",effective after three weeks
same,total mass of the untreated plants lower than the weight of the treated plants,Tomato plants [3],10%
same,protection against the effects of fungal infection,"Powdery mildew; 10 mg/L, watering and spraying",almost completely securing plants from the effects of fungal infection
same,protection against the effects of fungal infection,"Powdery mildew; sprayed twice, 20 mg/L",fully protecting plants against the effects of fungal infection
same,fungal infection and formation of infected leaf areas,"Powdery mildew; watered twice at a weekly interval, 20 mg/L",fungal infection and formation of infected areas were not observed
same,% of infection,Pyrenophora teres,17% and 17.50%
same,lesser negative effect of the herbicide compared to the control,Tomato plants [4],30%
